From patent US12370235B2, “Synthetic, non-natural antimicrobial peptides inspired by Staphylococcus auricularis delta toxin” (University of Saskatchewan, priority 2021, dated 2025)
Ends that are not written are not given here.

How the values were obtained:
[1] = test system: S. aureus ATCC 29213; assay: MIC, broth dilution; type: cell-based, Staphylococcus aureus; settings: for MIC (μg/mL) S. aureus: liquid broth
Method in brief: (§1)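 MIC defined as the lowest peptide level giving no growth after overnight standing incubation at 37° C. Bacteria at OD 6×10^−4 in cation-adjusted MH broth met 2-fold serial peptide dilutions; peptide purity 95%.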

[2] = test system: S. aureus ATCC 29213; assay: Spot-on-lawn assay; type: cell-based, Staphylococcus aureus; settings: 50 μg peptide spotted on agar
Description: Spot-on-lawn assay. For the initial screen, peptides of ≥70% purity were used. Each peptide was resuspended in sterile water to a concentration of 10 mg/ml. To determine antimicrobial activities a spot-on-lawn assay was performed. M. luteus and S. aureus were used as indicator strains. To prepare test organisms, the optical density (OD) of overnight cultures were measured and the organisms were diluted to an initial OD of 0.05 in soft nutrient agar (0.4% w/v) at 50° C. Next, 3 mL of soft agar containing a test organism was overlaid on a solid 1.5% w/v nutrient agar plate (LB). A total of 50 μg of each peptide was spotted on the inoculated surface and plates were incubated for 16 to 48 h before being examined for zones of inhibition.
SspA protease treatment. SspA protease was resuspended at 2 mg/mL in 100 mM HEPES, pH 7.8. Proteolysis was achieved by incubation of 50 μg PSMs at 37° C. for ˜5 hours with 0.2 mg/mL SspA. The antimicrobial activity of the proteolytic products were assayed by spotting a 5 μL (˜45 μg) from each treated peptide on each test microorganism as described above.

[3] = test system: M. luteus ATCC 4698; assay: MIC, broth dilution; type: cell-based, Micrococcus luteus; settings: Table 4; liquid broth
Description: MIC determination. MICs were measured using peptides with 95% purity. For bacterial studies, cation-adjusted Mueller Hinton (MH) broth was used as the growth medium whereas Yeast Peptone Dextrose (YPD; 10 g/L yeast extract, 20 g/L peptone, 20 g/L dextrose) was used for Candida spp. and other yeast. Microorganisms were diluted to an optical density of […] in MH or YPD broth and a 180 μl volume was mixed with 20 μl of peptide arrayed as a 2-fold dilution series in a flat-bottom 96-well microtitre plate. A control was performed using 20 μl of sterile water. Plates were incubated as standing cultures overnight at 37° C.
(§2) Determination of minimum inhibitory concentrations. The MICs were measured for bioactive peptides identified from the initial screen. For bacterial studies, cation-adjusted Mueller Hinton (MH) broth was used as the growth medium whereas YPD was used for C. albicans. Bacterial cultures were diluted to a OD value of 6×10^−4 in MH broth and a 180 μl volume was mixed with 20 μl of peptide arrayed as 2-fold dilution series in a 96-well plate. For the positive control, 20 μl of sterile water was used. Plates were incubated as standing cultures overnight at 37° C. The lowest peptide concentration that resulted no observed microbial growth after an overnight treatment was defined as the MIC.

[4] = test system: Mannheimia haemolytica ATCC 33393; assay: MIC, broth dilution; type: cell-based; settings: Table 10; liquid broth
Method in brief: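 Peptides (95% purity) in 2-fold dilution series were mixed with M. haemolytica diluted to OD 6×10^−4 in cation-adjusted Mueller Hinton broth and incubated standing overnight at 37 °C. MIC was the lowest concentration with no visible growth.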

[5] = test system: S. aureus ATCC 33592 (MRSA SCCmec type III); assay: MIC, broth dilution; type: cell-based, Staphylococcus aureus; settings: Table 5; STIP3 variants, highest concentration 100 μg/mL
Method in brief: as §1

[6] = test system: S. aureus / MRSA (ATCC MP-2 panel); type: cell-based, Staphylococcus aureus
Description: In order to begin to characterize STIP3-1 and potential sites amenable to modification, an alanine scanning experiment was performed. A total of 16 peptides with single alanine substitutions were assessed to inform on the importance of individual residues to antimicrobial activity. […] Next a series of thirty STIP3-1 variants were designed, guided by the aforementioned alanine scan and a previous report that the central α-helical core of the S. aureus δ-toxin could be converted into AMP through the inclusion of additional lysine residues^39. The collection included ten members with single substitutions relative to STIP3-1 and others that incorporated a number of changes that were designed to increase overall and local cationic charge as well as hydrophobic character (Table 5). Each of the STIPs was screened, including STIP3-1 to STIP-31, for antibiotic activity against a methicillin-sensitive S. aureus test organism and a panel of 7 MRSA strains defined by distinct SCCmec genotypes (FIG. 2; ATCC MP-2).
as §2

[7] = Circular dichroism spectroscopy; type: physicochemical; settings: CD, 50% (v/v) TFE
Description: The δ-toxins and the PSMs are characterized as α-helical peptides that form amyloid fibers^48. Although the propensity of individual peptides to form amyloids is correlated to their cytotoxicity^49, the amyloid form is not directly implicated in cell membrane disruption^50. […] CD spectroscopy was used to investigate the secondary structure of a subset of peptides within the collection (FIG. 4A, Table 5). The STIP variants adopted α-helical forms in 50% (v/v) trifluoroethanol (TFE), though unlike the full-length S. auricularis δ-toxin, they were unstructured in water. […] Specifically, peptides characterized by the greatest and least α-helical content in TFE had MICs above the highest tested threshold.
Circular dichroism spectroscopy. Peptides were dissolved in water at concentrations between 0.3 and 0.5 mg/mL. CD spectra were recorded on an Applied Photophysics Chirascan Plus CD spectrophotometer at room temperature in a 0.1 cm path-length quartz cuvette. Spectra were recorded from 180 to 260 nm.

| Substance | MIC (μg/mL) S. aureus ([1]; Table 4) | MIC (μg/mL) S. aureus ([1]; Table 10) | inhibition of S. aureus, spot-on-lawn [2] | MIC (μg/mL) M. luteus [3] [µg/mL] | MIC (μg/mL) M. haemolytica [4] [µg/mL] | MIC S. aureus ATCC 33592 (III) [5] | MIC S. aureus ATCC 29213 ([1]; Table 5, STIP3 variants, highest concentration 100 μg/mL) | fold increase of MIC relative to STIP3-29 [6] | α helicity (%) [7] [%] |
| --- | --- | --- | --- | --- | --- | --- | --- | --- | --- |
| TVAGLVKWILDTVKKFA [G3A, TVAGLVKWILDTVKKFA] | >^b (> = >200 μg/mL (maximum concentration tested)) | >^b (the use of > indicates an MIC > 200 μg/mL; the maximum concentration tested) | observed to inhibit S. aureus | 50 | 100 | – | – | – | – |
| TVGGLVKWILKTVKKFA-NH2 [STIP3-29-D3] | – | – | – | – | – | > (no inhibition was observed at the highest concentration of peptide tested: 100 μg/mL for the STIP3 variants) | > (no inhibition was observed at the highest concentration of peptide tested: 100 μg/mL for the STIP3 variants) | greater than 16 fold | 32 |
